Results reported in US8163909B2, “Substituted hydroxyethyl amine compounds as beta-secretase modulators and methods of use” (Amgen Inc., priority 2007, dated 2012).
Like-named read-outs stand apart in the source and are kept apart here.

Tests used:
[1] = tested on: Aβ40 in conditioned medium of cells stably expressing Amyloid Precursor Protein (APP); assay: In vitro BACE cell-based assay (Aβ40 in conditioned medium, sandwich ELISA);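 further: compounds added as a dilution series, secreted peptide quantified by europium time-resolved fluorescence readout, potency fitted from percent of control versus compound concentration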
[2] = target: Beta Secretase enzyme (BACE) (Homo sapiens, UniProt P56817); assay: In vitro enzymatic BACE FRET (fluorescence resonance energy transfer) assay; assay type: biochemical;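 further: fluorescence read after 1 h with 50 nM quenched peptide substrate spanning the BACE cleavage site, in pH 4.2 acetate buffer containing 10% DMSO and nonionic detergent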
Beta Secretase enzyme (BACE), sequence (P56817 46-501): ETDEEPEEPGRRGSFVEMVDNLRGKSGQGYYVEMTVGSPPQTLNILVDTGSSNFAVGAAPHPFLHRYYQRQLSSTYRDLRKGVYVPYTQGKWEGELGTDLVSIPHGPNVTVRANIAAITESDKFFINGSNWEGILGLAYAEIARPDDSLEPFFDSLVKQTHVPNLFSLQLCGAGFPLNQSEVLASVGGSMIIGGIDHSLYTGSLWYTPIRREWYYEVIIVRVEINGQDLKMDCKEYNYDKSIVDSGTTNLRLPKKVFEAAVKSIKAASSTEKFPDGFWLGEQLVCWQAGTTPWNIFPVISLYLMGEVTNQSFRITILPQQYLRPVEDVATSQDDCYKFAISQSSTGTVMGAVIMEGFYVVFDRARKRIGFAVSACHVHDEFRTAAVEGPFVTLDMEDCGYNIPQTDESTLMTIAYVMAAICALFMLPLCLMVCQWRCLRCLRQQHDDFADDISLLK

[3] = Homo sapiens, HEK293, HEK cells, cell-based assay, read-out: HEK cell assay (IC50)
[4] = BACE enzyme assay, read-out: BACE1 FRET assay (IC50)
[5] = HEK cells, cell-based assay, read-out: HEK cell assay (IC50)
[6] = BACE enzyme FRET assay, read-out: BACE1 FRET assay (IC50)

Compound | IC50 [1, 3] [µM] | IC50 [2, 4] [µM] | IC50 [2, 6] [µM] | further results
COc1cc(C[C@H](NC(=O)C(F)(F)F)[C@H](O)CN[C@H]2CC3(CCC3)Oc3ncc(CC(C)(C)C)cc32)ccc1F [compound 80] | 0.125 | 0.0123 |  | 
COC(C)C(=O)NC(Cc1cc(F)cc(F)c1)C(O)CNC1CC2(CCC2)Oc2ncc(CC(C)(C)C)cc21 [compound 102, (R)—N-((2S,3R)-1-(3,5-difluorophenyl)-3-hydroxy-4-((S)-6-neopentyl-3,4-dihydrospiro[cyclobutane-1,2H-pyrano[2,3-b]pyridin-4-ylamino)butan-2-yl)-2-methoxypropanamide] |  | 0.0053 |  | IC50 [1, 5]: 0.0106 µM
COCC(=O)N[C@@H](Cc1cccc(F)c1)[C@H](O)CN[C@H]1CC2(CCC2)Oc2ncc(CC3(C(F)(F)F)CC3)cc21 [compound 327] |  |  |  | IC50 ([1]; Homo sapiens, HEK293, Table 1, HEK cells, read-out: HEK cell assay): 0.0604 µM; IC50 ([2]; Table 1, read-out: BACE1 FRET assay): 0.00985 µM
CC(=O)N[C@@H](Cc1ccc(F)cc1)[C@H](O)CN[C@H]1CC2(CCC2)Oc2ncc(OC(C)(F)F)cc21 [compound 146] | 1.25 | 0.421 |  | 
CC(C)Cc1cnc2c(c1)[C@@H](NC[C@@H](O)[C@H](Cc1ccc3c(c1)OCO3)NC(=O)[C@H](C)F)CC1(CCC1)O2 [compound 601] |  |  |  | IC50 ([1]; Homo sapiens, HEK293, HEK cells, read-out: HEK cell assay (IC50)): 0.062 µM; IC50 ([2]; read-out: BACE1 FRET assay (IC50)): 0.044 µM
COCC(=O)NC(Cc1ccc2c(c1)OCO2)C(O)CNC1CC2(CC(C)C2)Oc2ncc(CC(C)(C)C)cc21 [compound 238, N-((1S,2R)-1-(1,3-benzodioxol-5-ylmethyl)-3-(((1s,3R,4′S)-6′-(2,2-dimethylpropyl)-3-methyl-3′,4′-dihydrospiro[cyclobutane-1,2′-pyrano[2,3-b]pyridin]-4′-yl)amino)-2-hydroxypropyl)-2-(methyloxy)acetamide] | 0.0327 |  | 0.0184 | 
COCC(=O)N[C@@H](Cc1ccc(F)cc1)[C@H](O)CN[C@H]1CC2(CCC2)Oc2cnc(CC(C)(C)F)cc21 [compound 255] | 0.216 |  | 0.19 | 
C#CCCC(=O)N[C@@H](Cc1cccc(F)c1)[C@H](O)CN[C@H]1CC2(CCC2)Oc2ncc(CC(C)(C)C)cc21 [compound 859] |  |  |  | IC50 ([1]; Homo sapiens, HEK293, cell-based assay, HEK cells, IC50's in uM, read-out: HEK cell assay): 0.027 µM; IC50 ([2]; BACE enzyme assay, IC50's in uM, read-out: BACE1 FRET assay): 0.004 µM
COCC(=O)N[C@@H](Cc1cccc(F)c1)[C@H](O)CN[C@H]1CC2(CCC2)Oc2ncc(CC(C)(C)F)cc21 [compound 284] | 0.00477 |  | 0.00265 | 
COC(C(=O)N[C@@H](Cc1cccc(F)c1)[C@H](O)CN[C@H]1CC2(CCC2)Oc2ncc(CC(C)(C)C)cc21)C(F)(F)F (stereo partly drawn) [compound 65] | 0.127 | 0.0343 |  | 
CC(=O)N[C@@H](Cc1cc(F)cc(F)c1)[C@H](O)CN[C@H]1CC2(CCC2)Oc2ncc(CC(C)(C)C#N)cc21 [compound 91] | 0.00646 | 0.00442 |  | 
CNc1nc(CC(C)(C)C)cc2c1OC1(CCC1)C[C@@H]2NC[C@@H](O)[C@H](Cc1ccc2c(c1)OCO2)NC(C)=O [compound 126] | 0.0091 | 0.0484 |  | 
CO[C@H](C)C(=O)N[C@@H](Cc1ccc2c(c1)OCO2)[C@H](O)CN[C@H]1CC2(CCC2)Oc2ncc(CCC(F)(F)F)cc21 [compound 194] | 1.52 |  | 1.07 | 
COCC(=O)N[C@@H](Cc1ccccc1)[C@H](O)CN[C@H]1CC2(CCC2)Oc2cnc(CC(C)(C)C)cc21 [compound 121] | 0.102 | 0.0221 |  | 
CC(=O)N[C@@H](Cc1ccc(F)cc1)[C@H](O)CN[C@H]1CC2(CCC2)Oc2ncc(CC(C)(C)C(F)F)cc21 [compound 159] | 0.0363 | 0.0192 |  | 
C[C@@H](O)C(=O)N[C@@H](Cc1ccc(F)cc1)[C@H](O)CN[C@H]1CC2(CCC2)Oc2ncc(CC(C)(C)C)cc21 [compound 157] | 0.0217 | 0.0151 |  | 
CC(C)(C)Cc1cnc2c(c1)[C@@H](NC[C@@H](O)[C@H](Cc1cc(F)cc(F)c1)NC(=O)CCl)CC1(CCC1)O2 [compound 104] |  | 0.00369 |  | IC50 [1, 5]: 0.0187 µM
CC(C)(C)Cc1cnc2c(c1)[C@@H](NC[C@@H](O)[C@H](Cc1ccc3c(c1)OCO3)NC(=O)[C@H]1CCCO1)CC1(CCC1)O2 [compound 454, (2R)-N-((1S,2R)-1-(1,3-benzodioxol-5-ylmethyl)-3-(((4′S)-6′-(2,2-dimethylpropyl)-3′,4′-dihydrospiro[cyclobutane-1,2′-pyrano[2,3-b]pyridin]-4′-yl)amino)-2-hydroxypropyl)tetrahydro-2-furancarboxamide] |  |  |  | IC50 ([1]; Homo sapiens, HEK293, Table 2, HEK cells, read-out: HEK cell assay): 0.027 µM; IC50 ([2]; Table 2, read-out: BACE1 FRET assay): 0.02 µM

Compound | IC50 [1, 3] [µM] | IC50 [2, 4] [µM] | IC50 [2, 6] [µM] | further results
COCC(=O)N[C@@H](Cc1ccc(F)c(OC(F)F)c1)[C@H](O)CN[C@H]1CC2(CCC2)Oc2ncc(CC(C)(C)C)cc21 [compound 214] | 0.00903 |  | 0.00877 | 
COCC(=O)N[C@@H](Cc1ccc(F)cc1)[C@H](O)CN[C@H]1CC2(CCC2)Oc2ncc(CCC(F)(F)F)cc21 [compound 193] | 0.518 |  | 0.202 | 
COCC(=O)N[C@@H](Cc1cc(F)cc(F)c1)[C@H](O)CN[C@H]1CC2(CCCC2)C(=O)c2ccc(CC(C)(C)C)cc21 [compound 89] | 0.0586 | 0.00495 |  | 
COCC(=O)N[C@@H](Cc1ccc(F)c(OC)c1)[C@H](O)CN[C@H]1CC2(CCC2)Oc2ncc(CC(C)(C)C)cc21 [compound 79] | 0.0148 | 0.00637 |  | 
COCC(=O)N[C@@H](Cc1ccc(F)cc1)[C@H](O)CN[C@H]1CC2(CCC2)Oc2ncc(CC3(C(F)(F)F)CC3)cc21 [compound 311] | 0.307 |  | 0.0515 | 
N-((1S,2R)-1-(1,3-benzodioxol-5-ylmethyl)-3-(((1r,3R,4′S)-6′-(2,2-dimethylpropyl)-3-hydroxy-3′,4′-dihydrospiro[cyclobutane-1,2′-pyrano[2,3-c]pyridin]-4′-yl)amino)-2-hydroxypropyl)acetamide N-((1S,2R)-1-(1,3-benzodioxol-5-ylmethyl)-3-(((1s,3S,4′S)-6′-(2,2-dimethylpropyl)-3-hydroxy-3′,4′-dihydrospiro[cyclobutane-1,2′-pyrano[2,3-c]pyridin]-4′-yl)amino)-2-hydroxypropyl)acetamide [compound 264] |  |  | 0.0422 | IC50 [1, 5]: 0.0688 µM
COCC(=O)NC(Cc1ccc2c(c1)OCO2)C(O)CNC1CC2(CC(O)C2)Oc2ccc(CC(C)(C)C)cc21 [compound 267, N-((1S,2R)-1-(1,3-benzodioxol-5-ylmethyl)-3-(((2s,3′S,4S)-6-(2,2-dimethylpropyl)-3′-hydroxy-3,4-dihydrospiro[chromene-2,1′-cyclobutan]-4-yl)amino)-2-hydroxypropyl)-2-(methyloxy)acetamide] | 0.0314 |  | 0.0318 | 
CC(=O)N[C@@H](Cc1ccc(F)cc1)[C@H](O)CN[C@H]1CC2(CCC2)Oc2c(F)cc(CC(C)(C)C#N)cc21 [compound 171] | 0.0282 | 0.0159 |  | 
CC(=O)N[C@@H](Cc1cc(Br)c2c(c1)OCO2)[C@H](O)CN[C@H]1CC2(CCC2)Oc2ncc(CC(C)(C)C)cc21 [compound 203] | 0.0211 |  | 0.00284 | 
CC(=O)NC(Cc1ccc(F)cc1)C(O)CNC1CC2(CC(CO)C2)Oc2ncc(CC(C)(C)C)cc21 [compound 259, N-((1S,2R)-3-(((1s,3R,4′S)-6′-(2,2-dimethylpropyl)-3-(hydroxymethyl)-3′,4′-dihydrospiro[cyclobutane-1,2′-pyrano[2,3-b]pyridin]-4′-yl)amino)-1-((4-fluorophenyl)methyl)-2-hydroxypropyl)acetamide] | 3.33 |  | 16 | 
COCC(=O)N[C@@H](Cc1ccc2c(c1)OCO2)[C@H](O)CN[C@H]1CC2(CCC2)Oc2c1cc(CC(C)(C)C)nc2NCC(F)(F)F [compound 142] | 1.95 | 0.35 |  | 
CC(=O)NC(Cc1cccc(F)c1)C(O)CNC1CC2(CC(O)C2)Oc2ncc(CC(C)(C)C)cc21 [compound 231, N-((1S,2R)-3-(((1s,3S,4′S)-6′-(2,2-dimethylpropyl)-3-hydroxy-3′,4′-dihydrospiro[cyclobutane-1,2′-pyrano[2,3-b]pyridin]-4′-yl)amino)-1-((3-fluorophenyl)methyl)-2-hydroxypropyl)acetamide] | 0.00304 |  | 0.00404 | 
CC(=O)NC(Cc1ccc(F)cc1)C(O)CNC1CC2(CC(O)C2)Oc2ncc(CC(C)C)cc21 [compound 251, N-((1S,2R)-1-((4-fluorophenyl)methyl)-2-hydroxy-3-(((1s,3S,4′S)-3-hydroxy-6′-(2-methylpropyl)-3′,4′-dihydrospiro[cyclobutane-1,2′-pyrano[2,3-b]pyridin]-4′-yl)amino)propyl)acetamide] | 0.0118 |  | 0.00634 | 
CO[C@H](C)C(=O)N[C@@H](Cc1ccc2c(c1)OCO2)[C@H](O)CN[C@H]1CC2(CCC2)Oc2ncc(CC(C)(F)F)cc21 [compound 279] | 0.108 |  | 0.126 | 
COCC(=O)N[C@@H](Cc1ccc(F)cc1)[C@H](O)CN[C@H]1CC2(CCC2)Oc2ccc(CC(C)(C)C)nc21 [compound 123, N-((1S,2R)-3-(((4′S)-6′-(2,2-dimethylpropyl)-3′,4′-dihydrospiro[cyclobutane-1,2′-pyrano[3,2-b]pyridin]-4′-yl)amino)-1-((4-fluorophenyl)methyl)-2-hydroxypropyl)-2-(methyloxy)acetamide] | 3.81 | 3.72 |  | 
COCC(=O)N[C@@H](Cc1ccc2c(c1)OCO2)[C@H](O)CN[C@H]1CC2(CCC2)Oc2ncc([C@H](F)C(C)(C)C)cc21 [compound 183] | 0.0178 | 0.00863 |  | 
COCC(=O)N[C@@H](Cc1cccc(C#N)c1)[C@H](O)CN[C@H]1CC2(CCC2)Oc2ncc(CC(C)(C)F)cc21 [compound 57] | 0.0053 | 0.00294 |  | 
CC(=O)N[C@@H](Cc1cccc(F)c1)[C@H](O)CN[C@H]1CC2(CCC2)Oc2c(F)cc(CC(C)(C)C)cc21 [compound 220] | 0.0116 |  | 0.00405 | 
